Experimental data taken from paper PMC7112232, “Computational design of substrate selective inhibition” (PLoS Computational Biology, 2020).

What was measured:
[1] = target: T1, Prolyl Oligopeptidase (POP) (Homo sapiens, UniProt P48147); assay: RP-HPLC cleavage assay with purified rhPOP (TRH as substrate); Km/Vmax and Dixon plots; format: biochemical
T1 construct: gene PREP; recombinant human POP (rhPOP), GST moiety removed
T1 sequence (P48147 1-710): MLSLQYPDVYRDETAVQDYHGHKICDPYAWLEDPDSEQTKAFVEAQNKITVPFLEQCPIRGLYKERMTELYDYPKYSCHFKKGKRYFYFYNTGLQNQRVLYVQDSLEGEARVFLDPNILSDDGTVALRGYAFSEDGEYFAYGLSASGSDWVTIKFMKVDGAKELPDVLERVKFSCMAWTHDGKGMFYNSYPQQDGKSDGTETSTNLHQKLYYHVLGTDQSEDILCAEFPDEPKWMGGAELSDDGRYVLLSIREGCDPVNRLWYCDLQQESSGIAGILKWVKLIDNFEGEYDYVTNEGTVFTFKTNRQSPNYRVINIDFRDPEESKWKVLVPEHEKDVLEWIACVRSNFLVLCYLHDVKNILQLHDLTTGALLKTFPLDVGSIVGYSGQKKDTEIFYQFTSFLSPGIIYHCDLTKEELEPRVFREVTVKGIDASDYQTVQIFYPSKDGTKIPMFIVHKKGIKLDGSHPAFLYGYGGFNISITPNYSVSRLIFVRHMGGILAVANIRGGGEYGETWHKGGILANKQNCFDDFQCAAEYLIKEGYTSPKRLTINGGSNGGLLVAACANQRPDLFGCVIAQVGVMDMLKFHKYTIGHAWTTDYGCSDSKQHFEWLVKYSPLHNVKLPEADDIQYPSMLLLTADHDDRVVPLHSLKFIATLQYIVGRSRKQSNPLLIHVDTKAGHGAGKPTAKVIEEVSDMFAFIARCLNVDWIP

[2] = target: T1, Prolyl Oligopeptidase (POP); assay: RP-HPLC cleavage assay with purified rhPOP (TRH as substrate); Dixon plots; format: biochemical

Structure (SMILES) | IC50 [1] | IC50 [2]
CCOC(=O)CN1C(=O)NC(CC)(c2ccccc2)C1=O (centres unmarked) [T5450157] | 130 µM | –
O=C(CCC(=O)N1CCCC1)c1ccccc1 [T6816369] | – | 32.1 µM
